Experimental data from ChEMBL document CHEMBL6114992, “Design, synthesis, biological evaluation, and mechanism of action of new pyrazines as anticancer agents in vitro and in vivo” (Bioorg Med Chem, 2025).
pIC50: −log10 of the molar value. The source made the active and inactive calls. The rule behind the calls is not given here.

What was measured:
SK-OV-3 [1] = experiment: Induction of apoptosis in human SK-OV-3 cells assessed as viable cells at 5 uM incubated for 48 hrs by Annexin V-FITC/PI staining based flow cytometry (reference value: 90.97 %); assay type: functional; conditions: read-out: Activity
THP-1 [2] = experiment: Induction of apoptosis in human THP-1 cells assessed as viable cells at 1 uM incubated for 48 hrs by Annexin V-FITC/PI staining based flow cytometry (reference value: 96.33 %); assay type: functional; conditions: read-out: Activity
U-937 = experiment: Antiproliferative activity against human U-937 cells assessed as inhibition of cell growth incubated for 72 hrs by MTT assay; assay type: functional, cell-based; conditions: U-937, 72 h
SK-OV-3 [3] = experiment: Antiproliferative activity against human SK-OV-3 cells assessed as inhibition of cell growth incubated for 72 hrs by MTT assay; assay type: functional, cell-based; conditions: SK-OV-3, 72 h
SK-OV-3 [4] = experiment: Induction of apoptosis in human SK-OV-3 cells assessed as change in mitochondrial membrane potential at 5 uM incubated for 48 hrs by JC-1 staining based flow cytometry (reference value: 5.34 %); assay type: functional
THP-1 [5] = experiment: Induction of apoptosis in human THP-1 cells assessed as viable cells at 0.5 uM incubated for 48 hrs by Annexin V-FITC/PI staining based flow cytometry (reference value: 96.33 %); assay type: functional; conditions: read-out: Activity
KG-1 [6] = experiment: Antiproliferative activity against human KG-1 cells assessed as inhibition of cell growth incubated for 72 hrs by MTT assay; assay type: functional, cell-based; conditions: KG-1, 72 h
THP-1 [7] = experiment: Induction of apoptosis in human THP-1 cells assessed as late apoptotic cells at 2.5 uM incubated for 48 hrs by Annexin V-FITC/PI staining based flow cytometry (reference value: 0.74 %); assay type: functional
THP-1 [8] = experiment: Induction of apoptosis in human THP-1 cells assessed as change in mitochondrial membrane potential at 0.5 uM incubated for 48 hrs by JC-1 staining based flow cytometry (reference value: 5.15 %); assay type: functional
SK-OV-3 [9] = experiment: Downregulation of XIAP expression in human SK-OV-3 cells incubated for 48 hrs by Western blot analysis; assay type: functional, cell-based
THP-1 [10] = experiment: Induction of apoptosis in human THP-1 cells assessed as necrotic cells at 2.5 uM incubated for 48 hrs by Annexin V-FITC/PI staining based flow cytometry (reference value: 2.48 %); assay type: functional
THP-1 [11] = experiment: Induction of apoptosis in human THP-1 cells assessed as change in mitochondrial membrane potential at 1 uM incubated for 48 hrs by JC-1 staining based flow cytometry (reference value: 5.15 %); assay type: functional
SK-OV-3 [12] = experiment: Induction of apoptosis in human SK-OV-3 cells assessed as change in mitochondrial membrane potential at 2.5 uM incubated for 48 hrs by JC-1 staining based flow cytometry (reference value: 5.34 %); assay type: functional
SK-OV-3 [13] = experiment: Induction of apoptosis in human SK-OV-3 cells assessed as necrotic cells at 5 uM incubated for 48 hrs by Annexin V-FITC/PI staining based flow cytometry (reference value: 4.45 %); assay type: functional
THP-1 [14] = experiment: Induction of apoptosis in human THP-1 cells assessed as late apoptotic cells at 0.5 uM incubated for 48 hrs by Annexin V-FITC/PI staining based flow cytometry (reference value: 0.74 %); assay type: functional
THP-1 [15] = experiment: Induction of apoptosis in human THP-1 cells assessed as early apoptotic cells at 1 uM incubated for 48 hrs by Annexin V-FITC/PI staining based flow cytometry (reference value: 0.45 %); assay type: functional
THP-1 [16] = experiment: Induction of apoptosis in human THP-1 cells assessed as viable cells at 2.5 uM incubated for 48 hrs by Annexin V-FITC/PI staining based flow cytometry (reference value: 96.33 %); assay type: functional; conditions: read-out: Activity
SK-OV-3 [17] = experiment: Induction of apoptosis in human SK-OV-3 cells assessed as early apoptotic cells at 2.5 uM incubated for 48 hrs by Annexin V-FITC/PI staining based flow cytometry (reference value: 0.08 %); assay type: functional
THP-1 [18] = experiment: Induction of apoptosis in human THP-1 cells assessed as necrotic cells at 1 uM incubated for 48 hrs by Annexin V-FITC/PI staining based flow cytometry (reference value: 2.48 %); assay type: functional
SK-OV-3 [19] = experiment: Induction of apoptosis in human SK-OV-3 cells assessed as viable cells at 2.5 uM incubated for 48 hrs by Annexin V-FITC/PI staining based flow cytometry (reference value: 90.97 %); assay type: functional; conditions: read-out: Activity
SK-OV-3 [20] = experiment: Induction of apoptosis in human SK-OV-3 cells assessed as necrotic cells at 1 uM incubated for 48 hrs by Annexin V-FITC/PI staining based flow cytometry (reference value: 4.45 %); assay type: functional
THP-1 [21] = experiment: Induction of apoptosis in human THP-1 cells assessed as early apoptotic cells at 2.5 uM incubated for 48 hrs by Annexin V-FITC/PI staining based flow cytometry (reference value: 0.45 %); assay type: functional
SK-OV-3 [22] = experiment: Induction of apoptosis in human SK-OV-3 cells assessed as late apoptotic cells at 2.5 uM incubated for 48 hrs by Annexin V-FITC/PI staining based flow cytometry (reference value: 4.51 %); assay type: functional
THP-1 [23] = experiment: Antiproliferative activity against human THP-1 cells assessed as inhibition of cell growth incubated for 72 hrs by MTT assay; assay type: functional, cell-based; conditions: THP-1, 72 h
[24] = target: Signal transducer and activator of transcription 3 (Homo sapiens) (UniProt P40763); experiment: Inhibition of STAT3 phosphorylation in human KG-1 cells at 0.5 to 2.5 uM incubated for 48 hrs by Western blot analysis; assay type: cell-based; conditions: dose 0.5-2.5 µM
Sequence of Signal transducer and activator of transcription 3 (Homo sapiens) (P40763 whole entry): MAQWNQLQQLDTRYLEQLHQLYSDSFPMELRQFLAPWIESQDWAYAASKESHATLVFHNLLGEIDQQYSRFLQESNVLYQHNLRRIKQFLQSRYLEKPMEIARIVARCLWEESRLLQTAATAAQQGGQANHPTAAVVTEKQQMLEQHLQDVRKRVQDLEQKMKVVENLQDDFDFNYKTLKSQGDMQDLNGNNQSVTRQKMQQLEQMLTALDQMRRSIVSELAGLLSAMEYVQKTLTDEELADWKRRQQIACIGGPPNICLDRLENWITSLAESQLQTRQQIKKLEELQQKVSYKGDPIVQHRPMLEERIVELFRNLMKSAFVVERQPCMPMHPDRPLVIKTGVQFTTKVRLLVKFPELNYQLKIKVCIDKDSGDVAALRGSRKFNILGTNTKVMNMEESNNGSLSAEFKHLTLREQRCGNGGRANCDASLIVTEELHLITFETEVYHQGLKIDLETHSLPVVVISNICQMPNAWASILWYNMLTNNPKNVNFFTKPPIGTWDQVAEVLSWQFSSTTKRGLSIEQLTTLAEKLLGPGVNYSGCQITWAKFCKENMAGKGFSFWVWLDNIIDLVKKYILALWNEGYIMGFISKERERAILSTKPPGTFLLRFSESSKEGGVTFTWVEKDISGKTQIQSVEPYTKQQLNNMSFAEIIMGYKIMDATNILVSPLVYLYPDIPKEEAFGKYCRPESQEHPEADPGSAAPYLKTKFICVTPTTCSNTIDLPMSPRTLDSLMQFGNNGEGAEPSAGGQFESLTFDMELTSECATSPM

SK-OV-3 [25] = experiment: Induction of apoptosis in human SK-OV-3 cells assessed as necrotic cells at 2.5 uM incubated for 48 hrs by Annexin V-FITC/PI staining based flow cytometry (reference value: 4.45 %); assay type: functional
SK-OV-3 [26] = experiment: Induction of apoptosis in human SK-OV-3 cells assessed as late apoptotic cells at 1 uM incubated for 48 hrs by Annexin V-FITC/PI staining based flow cytometry (reference value: 4.51 %); assay type: functional
[27] = Antiproliferative activity against human SK-OV-3/Taxol cells assessed as inhibition of cell growth incubated for 72 hrs by MTT assay; assay type: functional, cell-based; conditions: SK-OV-3, 72 h
SK-OV-3 [28] = experiment: Induction of apoptosis in human SK-OV-3 cells assessed as early apoptotic cells at 5 uM incubated for 48 hrs by Annexin V-FITC/PI staining based flow cytometry (reference value: 0.08 %); assay type: functional
KG-1 [29] = experiment: Downregulation of XIAP expression in human KG-1 cells incubated for 48 hrs by Western blot analysis; assay type: functional, cell-based; conditions: dose 0.5-2.5 µM
[30] = target: Signal transducer and activator of transcription 3 (Homo sapiens) (UniProt P40763); experiment: Inhibition of STAT3 phosphorylation in human THP-1 cells at 0.5 to 2.5 uM incubated for 48 hrs by Western blot analysis; assay type: cell-based; conditions: dose 0.5-2.5 µM
SK-OV-3 [31] = experiment: Induction of apoptosis in human SK-OV-3 cells assessed as viable cells at 1 uM incubated for 48 hrs by Annexin V-FITC/PI staining based flow cytometry (reference value: 90.97 %); assay type: functional; conditions: read-out: Activity
SK-OV-3 [32] = experiment: Induction of apoptosis in human SK-OV-3 cells assessed as late apoptotic cells at 5 uM incubated for 48 hrs by Annexin V-FITC/PI staining based flow cytometry (reference value: 4.51 %); assay type: functional
SK-OV-3 [33] = experiment: Induction of apoptosis in human SK-OV-3 cells assessed as change in mitochondrial membrane potential at 1 uM incubated for 48 hrs by JC-1 staining based flow cytometry (reference value: 5.34 %); assay type: functional
SK-OV-3 [34] = experiment: Induction of apoptosis in human SK-OV-3 cells assessed as early apoptotic cells at 1 uM incubated for 48 hrs by Annexin V-FITC/PI staining based flow cytometry (reference value: 0.08 %); assay type: functional

Q: For CCc1nccnc1C(=O)/C=C/c1ccccn1, which viability at 5 µM (SK-OV-3 [1]) is on record?
A: 44.6%

Q: What about the viability at 1 µM (THP-1 [2]) of the same molecule?
A: 91.6%

Q: What about the pIC50 (U-937) of the same molecule?
A: 6.16

Q: And the pIC50 (SK-OV-3 [3])?
A: 5.88

Q: What about the Activity (SK-OV-3 [4]) of the same molecule?
A: 31.28%

Q: What about the viability at 0.5 µM (THP-1 [5]) of the same molecule?
A: 93.5%

Q: And the pIC50 (KG-1 [6])?
A: 6.20

Q: And the Activity (THP-1 [7])?
A: 3.26%

Q: And the Activity (THP-1 [8])?
A: 6.52%

Q: What about the Activity (SK-OV-3 [9]) of the same molecule?
A: Dose-dependent-effect

Q: What about the Activity (THP-1 [10]) of the same molecule?
A: 1.77%

Q: And the Activity (THP-1 [11])?
A: 9.01%

Q: What about the Activity (SK-OV-3 [12]) of the same molecule?
A: 17.88%

Q: And the Activity (SK-OV-3 [13])?
A: 8.84%

Q: And the Activity (THP-1 [14])?
A: 1.53%

Q: And the Activity (THP-1 [15])?
A: 4.75%

Q: What about the viability at 2.5 µM (THP-1 [16]) of the same molecule?
A: 81.9%

Q: What about the Activity (SK-OV-3 [17]) of the same molecule?
A: 0.41%

Q: And the Activity (THP-1 [18])?
A: 1.94%

Q: What about the viability at 2.5 µM (SK-OV-3 [19]) of the same molecule?
A: 67%

Q: And the Activity (SK-OV-3 [20])?
A: 8.98%

Q: And the Activity (THP-1 [21])?
A: 13.09%

Q: What about the Activity (SK-OV-3 [22]) of the same molecule?
A: 23.46%

Q: What about the pIC50 (THP-1 [23]) of the same molecule?
A: 6.22

Q: And the inhibition [24]?
A: Active

Q: What about the Activity (SK-OV-3 [25]) of the same molecule?
A: 9.16%

Q: And the Activity (SK-OV-3 [26])?
A: 19.41%

Q: And the pIC50 [27]?
A: 5.91

Q: What about the Activity (SK-OV-3 [28]) of the same molecule?
A: 1.46%

Q: What about the Activity (KG-1 [29]) of the same molecule?
A: Dose-dependent-effect

Q: What about the inhibition [30] of the same molecule?
A: Active

Q: And the viability at 1 µM (SK-OV-3 [31])?
A: 71.2%

Q: And the Activity (SK-OV-3 [32])?
A: 45.06%

Q: What about the Activity (SK-OV-3 [33]) of the same molecule?
A: 11.51%

Q: And the Activity (SK-OV-3 [34])?
A: 0.37%

Q: Which viability at 5 µM (SK-OV-3 [1]) does the source give for Cc1nccnc1C(=O)/C=C/c1cccc(C#N)c1 here?
A: 22.5%

Q: And the viability at 1 µM (THP-1 [2])?
A: 92.7%

Q: And the pIC50 (U-937)?
A: 5.76

Q: What about the pIC50 (SK-OV-3 [3]) of the same molecule?
A: 5.86

Q: What about the Activity (SK-OV-3 [4]) of the same molecule?
A: 53.8%

Q: What about the viability at 0.5 µM (THP-1 [5]) of the same molecule?
A: 93.3%

Q: What about the pIC50 (KG-1 [6]) of the same molecule?
A: 5.75

Q: And the Activity (THP-1 [7])?
A: 4.82%

Q: What about the Activity (THP-1 [8]) of the same molecule?
A: 6.42%

Q: What about the Activity (SK-OV-3 [9]) of the same molecule?
A: Dose-dependent-effect

Q: What about the Activity (THP-1 [10]) of the same molecule?
A: 2.27%

Q: What about the Activity (THP-1 [11]) of the same molecule?
A: 7.94%

Q: And the Activity (SK-OV-3 [12])?
A: 18.87%

Q: What about the Activity (SK-OV-3 [13]) of the same molecule?
A: 9.68%

Q: And the Activity (THP-1 [14])?
A: 1.46%

Q: And the Activity (THP-1 [15])?
A: 3.12%

Q: And the viability at 2.5 µM (THP-1 [16])?
A: 77.8%

Q: And the Activity (SK-OV-3 [17])?
A: 0.77%

Q: And the Activity (THP-1 [18])?
A: 2.24%

Q: What about the viability at 2.5 µM (SK-OV-3 [19]) of the same molecule?
A: 63.3%

Q: What about the Activity (SK-OV-3 [20]) of the same molecule?
A: 5.49%

Q: And the Activity (THP-1 [21])?
A: 15.05%

Q: What about the Activity (SK-OV-3 [22]) of the same molecule?
A: 26.65%

Q: And the pIC50 (THP-1 [23])?
A: 5.82

Q: And the inhibition [24]?
A: Active

Q: And the Activity (SK-OV-3 [25])?
A: 9.29%

Q: What about the Activity (SK-OV-3 [26]) of the same molecule?
A: 21.04%

Q: What about the pIC50 [27] of the same molecule?
A: 5.85

Q: And the Activity (SK-OV-3 [28])?
A: 2.19%

Q: What about the Activity (KG-1 [29]) of the same molecule?
A: Dose-dependent-effect

Q: And the inhibition [30]?
A: Active

Q: What about the viability at 1 µM (SK-OV-3 [31]) of the same molecule?
A: 72.4%

Q: What about the Activity (SK-OV-3 [32]) of the same molecule?
A: 65.66%

Q: What about the Activity (SK-OV-3 [33]) of the same molecule?
A: 13.1%

Q: What about the Activity (SK-OV-3 [34]) of the same molecule?
A: 1.09%
